Measured values: PubChem BioAssay (NCI)
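Cells were grown in 96-well plates and exposed to each compound for 48 hours at five concentrations; endpoints were interpolated linearly between bracketing concentrations, or set to the highest concentration if not reached. TGI is the concentration that stops growth completely.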

Columns and labels:
Assay in all cases: DTP human tumour cell line panel, 48 h
[1] = test system: A549 NSCLC
[2] = test system: COLO 205 colon
[3] = test system: HOP-92 NSCLC
[4] = test system: MOLT-4 leukemia
[5] = test system: NCI-H522 lung
[6] = test system: OVCAR-5 ovarian
[7] = test system: SF-295 CNS
[8] = test system: SN12C renal
[9] = test system: T-47D breast
[10] = test system: UACC-257 melanoma

| Structure (SMILES) | TGI [1] [µM] | TGI [2] [µM] | TGI [3] [µM] | TGI [4] [µM] | TGI [5] [µM] | TGI [6] [µM] | TGI [7] [µM] | TGI [8] [µM] | TGI [9] [µM] | TGI [10] [µM] |
| --- | --- | --- | --- | --- | --- | --- | --- | --- | --- | --- |
| CCCCc1ccc(Nc2nc3c(ncn3COCCO)c(=O)[nH]2)cc1 | > 100 | > 100 | > 100 | > 100 | > 100 | > 100 | > 100 | > 100 | > 100 | > 100 |
| CCOc1cc(-c2nc3ccccn3c2/N=C/c2cc(Br)ccc2O)ccc1O | > 100 | > 100 | 64.5 | > 100 | > 100 | > 100 | > 100 | > 100 | 22.4 | 53.5 |
| CCC(=O)Oc1c2ccsc2c(OC(=O)CC)c2ccsc12 | 4.51 | 10.6 | 3.98 | > 100 | 2.06 | 3.35 | 0.675 | 1.16 | 3.88 | 0.333 |
| COc1cc2c(/C=C3/C(=O)Nc4ccccc43)c(Cl)[nH]c2cc1C | 22.7 | 1.73 | 26.6 | 14.2 | 2.4 | 23.7 | 1.19 | 13.1 | 41.1 | > 45.8 |
| COc1ccc2c(c1)CN1C(=N2)CSC1c1ccccc1Cl (stereo not given) | > 100 | 28.3 | 31.2 | 19 | 39.2 | 46.8 | 75.6 | 40.1 | > 100 | 28.8 |
| N#Cc1cc2c(cc1Cl)Sc1nccn1S2(=O)=O | 28.7 | 31.5 | 15.3 | 2.54 | 4.11 | 27.4 | 12.2 | 20.8 | 8.57 | 5.81 |
| COC(=O)C1=Nc2c(C)nn(-c3ccccc3)c2N=C(c2ccc([N+](=O)[O-])cc2)C1 | > 10 | > 10 | > 10 | > 10 | > 10 | > 10 | > 10 | > 10 | > 10 | > 10 |
| CC1(CNCc2ccccc2)CC(CCc2ccccc2)N(C(=O)c2ccc([N+](=O)[O-])cc2)C1Cc1ccc(O)cc1 (stereo not given) | 24.8 | 19.4 | 9.88 | > 100 | 22.3 | 34 | 25.6 | 20.8 | 18.8 | 27 |
| COc1cc(CN2CCCCC2)cc2cc(C(=O)O)c(=O)oc12 | > 100 | > 100 | > 100 | > 100 | > 100 | > 100 | > 100 | > 100 | > 100 | > 100 |
| COC(=O)Cc1c([C@H]2[C@H](CC(=O)OC)c3ccccc3N2C(C)=O)[nH]c2ccccc12 | > 100 | > 100 | > 100 | > 100 | > 100 | > 100 | > 100 | > 100 | > 100 | > 100 |
| COc1cc(/C=C\C(=O)O)ccc1OCc1ccccc1 | > 100 | > 100 | > 100 | > 100 | > 100 | > 100 | > 100 | > 100 | > 100 | > 100 |
| Cc1cc2[nH]c3c(C#N)c4c(c(=O)n3c2cc1C)CCCC4 | > 100 | > 100 | > 100 | > 100 | > 100 | 32.7 | 29.5 | > 100 | > 100 | > 100 |
| Brc1cc2nn(-c3ccccc3)nc2c2nonc12 | > 100 | > 100 | > 100 | > 100 | > 100 | > 100 | > 100 | > 100 | > 100 | > 100 |
| O=C1C=CC(=O)c2c(O)c(NCCc3ccc(O)cc3)c(Cl)c(O)c21 | > 10 | > 10 | > 10 | > 10 | > 10 | > 10 | > 10 | > 10 | > 10 | > 10 |
| Cc1c2ncccc2cc2oc3ccccc3c(=O)c12 | > 100 | > 100 | 92.7 | 23.5 | > 100 | 59.7 | > 100 | > 100 | 61.7 | > 100 |
| CC1(C)C=C(S(=O)(=O)c2ccccc2)Oc2ccccc2O1 | > 100 | 35.1 | 67.5 | 71.9 | > 100 | > 100 | > 100 | > 100 | 96.4 | > 100 |
